≈ marks a conversion by molar mass, not a printed value. Entries after “also recorded” stand apart in the source; their conditions may differ. Where two headings read alike, the source gives them in different places. Bridge positions count the residues as written; N and C are the ends.
Assays:
C. albicans SC5314 [1] = assay: In vivo model of disseminated candidiasis in BALB/c mice (survival, body weight, renal fungal burden); conditions: for survival efficacy relative to MTD1280: candidemia model, survival as metric, 0.1 mg/kg versus MTD1280 0.25 mg/kg, FIGS. 10 to 13; for renal fungal burden reduced to a greater extent than fluconazole, P (Fisher's LSD test): peptide 0.1 or 0.25 mg/kg versus fluconazole 5 mg/kg; for survival by end point analysis versus fluconazole: χ^2 analysis at day 30 p.i.; for survival compared to saline controls, P (log-rank analysis): observed 26 days p.i.; for survival compared to saline controls, P (log-rank analysis) / survival efficacy, comparison in words: FIG. 8
Method: Mice were infected i.v. at T=0 with 3×105 blastospores of C. albicans SC5314.
Mice were infected i.v. at T=0 with 3×10^5 blastospores of C. albicans SC5314. At T=24 h, mice were treated i.p. daily for 7 d w.
Suitable cyclic tetradecapeptides can be identified by screening against a murine model for disseminated candidiasis. C. albicans SC5314 obtained from American Type Culture Collection can be used as a suitable reference strain. […] Typical antifungal drugs include caspofungin and fluconazole. Cyclic tetradecapeptides to be tested and antifungal drugs can be suspended or dissolved in water or isotonic saline and administered by one or more of intravenous, subcutaneous, intramuscular, and/or intraperitoneal injection.
In vitro activity of synthetic cyclic tetradecapeptides and antifungal compounds can be determined using conventional culture techniques that are known in the art as described above in relation to RTD-1, and can be used to determine sub-antifungal concentrations. Systemic or disseminated candidiasis can be modeled in vivo by, for example, challenging BALB/c female mice with 0.15 to 2 mL of C. albicans (reference strain or resistant strain) at from about 2×10^5 to about 2×10^7 CFU/mL of the organism. Animals can the be treated with candidate synthetic cyclic tetradecapeptide before challenge with the pathogen, at the time of pathogen challenge, or after challenge with the pathogen. Antifungal drugs and/or candidate synthetic cyclic tetradecapeptide can be administered by intravenous, subcutaneous, intramuscular, and/or intraperitoneal injection in such an in vivo model of systemic or disseminated candidiasis.
In activity studies the synthetic cyclic tetradecapeptide MTD1280 (SEQ ID NO. 6), which was identified initially as having significant antifungal activity, was used as a model peptide. Briefly, 7-8 week old, immunocompetent, female BALB/c mice were challenged i.v. at T=0 with 3×10^5 CFU of C. albicans SC5314. […] As shown, caspofungin (Caspo) is not effective against this strain of C. albicans.
Candidate synthetic cyclic tetradecapeptides were pre-screened for tolerance by determining a lack of toxicity when administered at >5 mg/kg.

C. albicans SC5314 [2] = conditions: strain SC5314, cited from earlier work
C. albicans [3] = conditions: cited from earlier work
C. albicans [4] = assay: In vitro antifungal activity, sub-antifungal concentration, C. albicans in general; assay type: cell-based, Candida albicans; conditions: in the presence of serum
Source text: Within the context of this application, a “sub-antifungal concentration” in regard to a fungal pathogen should be understood to be a concentration at which the compound so described has no antifungal effect when applied to the fungal pathogen in vitro (e.g. in a liquid culture medium), e.g. in the absence of host immune effectors.
Basso et al. (Basso et al., “Rhesus theta defensin 1 promotes long term survival in systemic candidiasis by host directed mechanisms” Nature Scientific Reports (2019) 9: 16905) provides an example of determination of sub-antifungal concentration for the native θ-defensin RTD-1 in regard to different strains of Candida albicans. Cultures of different strains of C. albicans were established in RPMI media or RPMI media containing 50% serum. […] MFC was determined as the lowest concentration that provided 99% killing relative to the input inoculum. MIC was determined as the lowest concentration that inhibited growth.
Based on such data, for C. albicans a sub-antifungal concentration of RTD-1 in the presence of serum would be less than 100 μg/mL. Such sub-antifungal concentrations can be determined experimentally (for example, by culture from a patient sample) or, preferably, from historical data. […]

C. albicans strain 53264 = conditions: cited from earlier work
[5] = test system: susceptible and multiple drug resistant strains of C. albicans; conditions: cited from earlier work
C. albicans strain 43001 = conditions: cited from earlier work
[6] = long term survivors 30 days p.i., FIG. 14
[7] = RPMI, lowest concentration giving 99% killing
[8] = RPMI, lowest concentration that inhibited growth
[9] = 5 mg/kg i.p. daily for 7 d from 24 h p.i.
[10] = 5 mg/kg i.p. once a day for 7 days

MTD1283: synthetic cyclic tetradecapeptide θ-defensin analog, SEQ ID NO. 4, two disulfide bonds (cyclo(GVCICRRRVCICRR); disulfide (positions not given here))
survival efficacy relative to MTD1280 (C. albicans SC5314 [1]): equivalent or superior to MTD1280
renal fungal burden reduced to a greater extent than fluconazole, P (Fisher's LSD test) (C. albicans SC5314 [1]; [6]): 7.4×10^−3
survival by end point analysis versus fluconazole (C. albicans SC5314 [1]; fluconazole 5 mg/kg): more effective than fluconazole

RTD-1: naturally occurring rhesus θ-defensin, cyclic octadecapeptide with three disulfide bonds, SEQ ID NO. 1 (cyclo(GFCRCLCRRGVCRCICTR); disulfide (positions not given here); listed as Macaca mulatta)
MFC (C. albicans SC5314 [2]; 50% serum): >100 µg/mL
MIC (C. albicans SC5314 [2]; 50% serum): >100 µg/mL
MFC (C. albicans SC5314 [2]; [7]): 25 µg/mL
MIC (C. albicans SC5314 [2]; [8]): 12.5 µg/mL
survival compared to saline controls, P (log-rank analysis) (C. albicans SC5314 [1]; [9]): 3.4×10^−6
survival efficacy, comparison in words (C. albicans SC5314 [1]; [10]): more effective than 5 mg/kg of fluconazole
in vitro antifungal activity in the presence of serum (C. albicans [3]; in vitro studies, serum): abolished by the presence of serum
in vitro concentration required relative to concentrations effective in vivo (C. albicans [3]; in vitro versus murine model): ≥ 50 fold
sub-antifungal concentration (C. albicans [4]): less than 100 μg/mL
MFC (C. albicans strain 53264; 50% serum): >100 µg/mL
MIC (C. albicans strain 53264; 50% serum): >100 µg/mL
MFC (C. albicans strain 53264; RPMI): 12.5 µg/mL
MIC (C. albicans strain 53264; RPMI): 12.5 µg/mL
long term production of pro-inflammatory cytokines ([5]; in vivo, treatment with RTD-1): reduction in long term production of pro-inflammatory cytokines
efficacy in animal models of systemic candidiasis ([5]; susceptible and multiple drug resistant strains): effective
MFC (C. albicans strain 43001; 50% serum): >100 µg/mL
MIC (C. albicans strain 43001; 50% serum): >100 µg/mL
MFC (C. albicans strain 43001; RPMI): 12.5 µg/mL
MIC (C. albicans strain 43001; RPMI): 6.25 µg/mL

MTD12811: synthetic cyclic tetradecapeptide θ-defensin analog, SEQ ID NO. 3, two disulfide bonds (cyclo(GVCSCRRRFCICRR); disulfide (positions not given here))
survival efficacy relative to MTD1280 (C. albicans SC5314 [1]): equivalent or superior to MTD1280

MTD12810: synthetic cyclic tetradecapeptide θ-defensin analog, SEQ ID NO. 2, two disulfide bonds (Cys3-Cys12, Cys5-Cys10) (cyclo(GVCSCRRRFCLCRR); disulfide 5-10, 3-12)
survival efficacy relative to MTD1280 (C. albicans SC5314 [1]): equivalent or superior to MTD1280
renal fungal burden reduced to a greater extent than fluconazole, P (Fisher's LSD test) (C. albicans SC5314 [1]; [6]): 3.5×10^−5
survival by end point analysis versus fluconazole (C. albicans SC5314 [1]; fluconazole 5 mg/kg): more effective than fluconazole

OC(Cn1cncn1)(Cn1cncn1)c1ccc(F)cc1F [Fluconazole, fluconazole]
MIC (C. albicans SC5314 [2]; [8]): 64 µg/mL (≈ 209 µM)
survival compared to saline controls, P (log-rank analysis) (C. albicans SC5314 [1]; [9]): 3.4×10^−6
renal fungal burden in kidney homogenates (C. albicans SC5314 [1]; long term survivors 30 days p.i., peptide 0.1 or 0.25 mg/kg, fluconazole 5 mg/kg, FIG. 14): reduced fungal burden

MTD1280: model synthetic cyclic tetradecapeptide θ-defensin analog, SEQ ID NO. 6, used as reference peptide (GVCICRRRFCLCRR; cyclic; Synthetic cyclic peptide MTD1280)
survival benefit (C. albicans SC5314 [1]; 0.1 mg/kg i.p. once a day for 7 days, FIG. 9): no survival benefit
survival compared to saline controls, P (log-rank analysis) (C. albicans SC5314 [1]; 0.25 mg/kg i.p. daily for 7 d from 24 h p.i.): 2.3×10^−7
survival efficacy, comparison in words (C. albicans SC5314 [1]; 0.25 mg/kg i.p. once a day for 7 days): more effective than 5 mg/kg of RTD-1; also recorded: more effective than 5 mg/kg of fluconazole
transient mean reduction in bodyweight (C. albicans SC5314 [1]; long term surviving treated candidemic mice, plateaued by day 10): 15%
share of cohort that regained initial body weights (C. albicans SC5314 [1]; long term surviving treated mice; by day 3)): 90%
renal fungal burden reduced to a greater extent than fluconazole, P (Fisher's LSD test) (C. albicans SC5314 [1]; [6]): 3×10^−3

MTD1288: synthetic cyclic tetradecapeptide θ-defensin analog, SEQ ID NO. 5, two disulfide bonds (cyclo(GLCICRRRACLCRR); disulfide (positions not given here))
survival efficacy relative to MTD1280 (C. albicans SC5314 [1]): equivalent or superior to MTD1280
renal fungal burden reduced to a greater extent than fluconazole, P (Fisher's LSD test) (C. albicans SC5314 [1]; [6]): 0.02
survival by end point analysis versus fluconazole (C. albicans SC5314 [1]; fluconazole 5 mg/kg): more effective than fluconazole

CC[C@H](C)C[C@H](C)CCCCCCCCC(=O)N[C@H]1C[C@@H](O)[C@@H](NCCN)NC(=O)[C@@H]2[C@@H](O)CCN2C(=O)[C@H]([C@H](O)CCN)NC(=O)[C@H]([C@H](O)[C@@H](O)c2ccc(O)cc2)NC(=O)[C@@H]2C[C@@H](O)CN2C(=O)[C@H]([C@@H](C)O)NC1=O [Caspofungin, caspofungin]
MFC (C. albicans SC5314 [2]; [7]): >256 µg/mL
MIC (C. albicans SC5314 [2]; [8]): 0.06 µg/mL (≈ 0.0549 µM)
survival compared to saline controls, P (log-rank analysis) (C. albicans SC5314 [1]; [9]): 3.4×10^−6
survival efficacy, comparison in words (C. albicans SC5314 [1]; [10]): not effective
MFC (C. albicans strain 53264; RPMI): >8 µg/mL
MIC (C. albicans strain 53264; RPMI): >8 µg/mL
MFC (C. albicans strain 43001; RPMI): 2 µg/mL (≈ 1.83 µM)
MIC (C. albicans strain 43001; RPMI): 2 µg/mL (≈ 1.83 µM)

Reference: US12146005B2, “Compositions and methods for treatment of fungal infections” (THE UNIVERSITY OF SOUTHERN CALIFORNIA, priority 2019, dated 2024)
